Data taken from ChEMBL document CHEMBL5356978 (Bioorg Med Chem Lett, 2024).
Activity calls are given as the source filed them. No cut-off for these calls is given here.

Tests used:
[1] = molecular target: T1, beta-catenin-B-cell lymphoma 9 protein complex (Homo sapiens, UniProt P35222); experiment: Inhibition of full length beta-catenin (unknown origin)/FAM labeled BCL9 (350 to 375 residues) (unknown origin) protein-protein interaction by competitive FP assay; type: protein-complex assay
T1 sequence (P35222 whole entry): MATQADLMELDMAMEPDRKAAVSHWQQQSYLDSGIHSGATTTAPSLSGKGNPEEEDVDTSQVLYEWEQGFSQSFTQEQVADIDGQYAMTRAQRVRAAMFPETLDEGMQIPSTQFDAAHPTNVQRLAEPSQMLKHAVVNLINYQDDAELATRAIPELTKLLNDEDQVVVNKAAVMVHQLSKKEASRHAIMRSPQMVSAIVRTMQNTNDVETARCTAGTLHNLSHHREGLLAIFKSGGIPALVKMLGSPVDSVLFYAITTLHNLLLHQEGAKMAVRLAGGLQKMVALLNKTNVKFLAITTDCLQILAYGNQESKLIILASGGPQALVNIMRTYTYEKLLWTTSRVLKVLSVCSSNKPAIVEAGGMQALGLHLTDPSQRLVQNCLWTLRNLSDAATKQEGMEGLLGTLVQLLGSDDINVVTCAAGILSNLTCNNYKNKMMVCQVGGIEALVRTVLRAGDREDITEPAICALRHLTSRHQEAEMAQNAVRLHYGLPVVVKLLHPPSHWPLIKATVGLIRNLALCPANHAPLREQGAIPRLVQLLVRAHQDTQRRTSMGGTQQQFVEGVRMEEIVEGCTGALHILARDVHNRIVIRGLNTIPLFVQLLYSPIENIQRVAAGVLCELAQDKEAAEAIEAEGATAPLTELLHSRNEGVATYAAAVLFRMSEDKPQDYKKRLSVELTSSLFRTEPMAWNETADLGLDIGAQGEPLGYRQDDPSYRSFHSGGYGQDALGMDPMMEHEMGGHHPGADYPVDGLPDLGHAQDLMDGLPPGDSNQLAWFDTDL
T1 sequence (O00512 whole entry): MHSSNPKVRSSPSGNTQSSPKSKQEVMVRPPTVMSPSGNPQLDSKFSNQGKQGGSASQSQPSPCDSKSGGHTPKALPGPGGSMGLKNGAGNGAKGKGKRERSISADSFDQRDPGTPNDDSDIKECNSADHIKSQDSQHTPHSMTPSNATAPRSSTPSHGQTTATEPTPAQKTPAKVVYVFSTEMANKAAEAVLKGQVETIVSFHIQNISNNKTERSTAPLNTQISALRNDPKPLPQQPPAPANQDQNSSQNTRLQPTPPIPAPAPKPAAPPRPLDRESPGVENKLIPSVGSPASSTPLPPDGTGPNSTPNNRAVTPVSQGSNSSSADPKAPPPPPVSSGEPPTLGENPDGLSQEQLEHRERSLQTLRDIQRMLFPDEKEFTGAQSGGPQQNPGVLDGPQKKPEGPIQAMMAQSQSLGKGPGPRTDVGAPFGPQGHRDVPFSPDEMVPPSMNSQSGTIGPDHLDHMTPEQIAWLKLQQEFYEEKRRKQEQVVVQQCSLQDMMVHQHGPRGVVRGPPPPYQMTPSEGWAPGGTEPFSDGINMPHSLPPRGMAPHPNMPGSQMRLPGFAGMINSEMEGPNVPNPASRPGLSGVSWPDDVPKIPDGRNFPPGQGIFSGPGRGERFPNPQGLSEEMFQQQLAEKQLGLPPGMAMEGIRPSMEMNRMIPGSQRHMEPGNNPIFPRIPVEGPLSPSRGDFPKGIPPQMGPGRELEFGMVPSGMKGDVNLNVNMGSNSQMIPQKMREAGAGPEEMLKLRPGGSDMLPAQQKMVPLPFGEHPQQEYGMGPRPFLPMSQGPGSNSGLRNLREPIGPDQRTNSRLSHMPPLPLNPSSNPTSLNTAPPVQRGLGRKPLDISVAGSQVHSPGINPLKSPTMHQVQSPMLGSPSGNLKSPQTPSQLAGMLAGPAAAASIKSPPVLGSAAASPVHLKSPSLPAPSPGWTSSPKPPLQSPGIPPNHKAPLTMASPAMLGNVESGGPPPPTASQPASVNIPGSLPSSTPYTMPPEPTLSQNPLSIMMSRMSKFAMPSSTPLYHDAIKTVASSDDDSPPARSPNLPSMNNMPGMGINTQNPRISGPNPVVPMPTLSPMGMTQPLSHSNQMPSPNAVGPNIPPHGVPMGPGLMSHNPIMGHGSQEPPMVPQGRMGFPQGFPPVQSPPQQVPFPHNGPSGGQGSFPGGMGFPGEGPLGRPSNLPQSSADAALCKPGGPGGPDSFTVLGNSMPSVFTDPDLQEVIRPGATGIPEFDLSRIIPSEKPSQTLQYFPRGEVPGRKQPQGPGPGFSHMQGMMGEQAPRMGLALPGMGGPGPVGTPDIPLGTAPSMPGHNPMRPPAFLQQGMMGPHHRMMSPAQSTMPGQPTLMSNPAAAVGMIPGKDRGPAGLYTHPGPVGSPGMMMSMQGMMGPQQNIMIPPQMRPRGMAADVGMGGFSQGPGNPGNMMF

[2] = system: CT26; experiment: Antiproliferative activity against mouse CT26 cells harboring active Wnt/beta-catenin signal assessed as inhibition of cell proliferation by CCK8 assay
[3] = Inhibition of Wnt/beta-catenin signaling pathway in mouse CT26 cells assessed as downregulation of AXIN2 expression incubated for 24 hrs by qPCR analysis; details: CT26, 24 h
[4] = system: HCT-116; experiment: Antiproliferative activity against human HCT-116 cells assessed as inhibition of cell proliferation by CCK8 assay
[5] = system: CT26; experiment: Antitumor activity against mouse CT26 cells implanted in mouse assessed as reduction in tumor size at 15 mg/kg, ip administered for 7 days; type: functional, organism-based; details: time 7.0 day
[6] = system: CT26; experiment: Induction of apoptosis in mouse CT26 cells at 20 uM incubated for 24 hrs by annexin V-FITC/PI staining based flow cytometry analysis relative to control; type: functional
[7] = […] Colorectal cancer cells (unknown origin) assessed as regulation of immune microenvironment by measuring granzyme B positive cells at 5 to 10 uM incubated for 24 hrs by flow cytometry analysis (reference value: 16.2%); type: functional; parameters: scale not given: the % may be the effect or the level left; details: dose 5-10 µM
[8] = system: CT26; experiment: Antitumor activity against mouse CT26 cells implanted in mouse assessed as tumor growth inhibition at 15 mg/kg, ip administered for 7 days relative to control; type: functional; details: CT26, 168 h, time 7 day, read-out: TGI
[9] = system: CT26; experiment: Induction of apoptosis in mouse CT26 cells assessed as increase in late apoptotic cells at 5 to 20 uM incubated for 24 hrs by annexin V-FITC/PI staining based flow cytometry analysis; type: functional, cell-based; details: dose 5-20 µM
[10] = Toxicity in mouse implanted with mouse CT26 cells assessed as reduction in body weight at 15 mg/kg, ip administered for 7 days and measured for 11 days; type: organism-based; details: in vivo, 168 h, time 7 day
[11] = Inhibition of Wnt/beta-catenin signaling transactivation in human HCT-116 cells assessed as reduction in downstream nuclear transcription ability by TCF/LEF reporter assay
[12] = cells; details: Homo sapiens, HCT-116, 24 h
Description: Inhibition of Wnt pathway in human HCT-116 cells assessed as inhibition of Auxin2 expression incubated for 24 hrs by qPCR analysis

[13] = system: CT26; experiment: Antimigratory activity in mouse CT26 cells assessed as reduction in cell migration incubated for 24 hrs by transwell assay; type: functional, cell-based; details: dose 5-20 µM
[14] = system: CT26; experiment: Induction of apoptosis in mouse CT26 cells at 5 uM incubated for 24 hrs by annexin V-FITC/PI staining based flow cytometry analysis relative to control; type: functional

Structure (SMILES)	IC50 [1] [µM]	IC50 [2] [µM]	IC50 [3] [µM]	also measured
COC(=O)c1ccc(-c2c(O)cc(O)c3c(=O)c(O)c(-c4ccc(O)c(O)c4)oc23)cc1	2.99	15.1	5.05	–
O=c1c(O)c(-c2ccc(O)c(O)c2)oc2c(-c3ccc(F)c(F)c3)c(O)cc(O)c12	3.15	7.1	1.45	–
COc1ccc(-c2c(OC)cc(OC)c3c(=O)c(OC)c(-c4ccc(OC)c(OC)c4)oc23)cc1	17.3	27.8	1.14	–
COC(=O)c1ccc(-c2c(OC)cc(OC)c3c(=O)c(OC)c(-c4ccc(OC)c(OC)c4)oc23)cc1	7.64	16	12	–
O=c1c(O)c(-c2ccc(O)c(O)c2)oc2c(-c3ccc(F)cc3)c(O)cc(O)c12	2.35	3.32	0.8	–
COc1ccc(-c2oc3c(-c4ccc(F)cc4)c(OC)cc(OC)c3c(=O)c2OC)cc1OC	6.93	19.8	4.57	–
COc1ccc(-c2oc3c(-c4ccccc4)c(OC)cc(OC)c3c(=O)c2OC)cc1OC	12.1	15.1	1.11	–
COc1ccc(-c2oc3c(-c4ccc(F)c(F)c4)c(OC)cc(OC)c3c(=O)c2OC)cc1OC	5.78	32.1	12	–
COc1ccc(-c2oc3c(C4CC4)c(OC)cc(OC)c3c(=O)c2OC)cc1OC	20	3.39	2.04	–
Cc1ccc(-c2c(O)cc(O)c3c(=O)c(O)c(-c4ccc(O)c(O)c4)oc23)cc1	–	1.69	0.76	IC50 [4]: 1.7 µM; Activity [5]: Active; Activity [6]: 34.03%; Activity [7]: 44.5%; inhibition in vivo at 15 mg/kg [8]: 76%; Activity [9]: Active; Activity [10]: Non-Toxic; IC50 [11]: 0.76 µM; IC50 [12]: 4.02 µM; Activity [13]: Dose-Dependent Effect; Activity [14]: 29.11%
O=c1c(O)c(-c2ccc(O)c(O)c2)oc2cc(O)cc(O)c12 [QUERCETIN]	–	–	7.7	IC50 [4]: 11.4 µM; Activity [6]: 23.89%; inhibition in vivo at 15 mg/kg [8]: 43.1%; Activity [10]: Non-Toxic; IC50 [11]: 4.87 µM; IC50 [12]: 9.95 µM; Activity [13]: Dose-Dependent Effect; Activity [14]: 17.36%
COc1ccc(-c2oc3c(Nc4ccccc4)c(OC)cc(OC)c3c(=O)c2OC)cc1OC	16.2	2.49	1.09	–
COc1ccc(-c2oc3c(-c4ccc(C(F)(F)F)cc4)c(OC)cc(OC)c3c(=O)c2OC)cc1OC	8.81	16.2	9.2	–
COc1ccc(-c2oc3c(C4=CCNCC4)c(OC)cc(OC)c3c(=O)c2OC)cc1OC	8.92	12.9	1.06	–
COc1ccc(-c2oc3c(-c4ccc(C)cc4)c(OC)cc(OC)c3c(=O)c2OC)cc1OC	5.24	11.4	1.97	–
COc1ccc(-c2oc3c(-c4ccc(C(=O)O)cc4)c(OC)cc(OC)c3c(=O)c2OC)cc1OC	4.52	14.1	10.4	–
O=c1c(O)c(-c2ccc(O)c(O)c2)oc2c(-c3ccccc3)c(O)cc(O)c12	3.83	3.32	1.31	–
COc1ccc(-c2oc3c(-c4ccncc4)c(OC)cc(OC)c3c(=O)c2OC)cc1OC	2.75	14.2	3.1	–
